According to publication PMC4683934, “Effect of an ethanol extract of Descurainia sophia seeds on Phase I and II drug metabolizing enzymes and P-glycoprotein activity in vitro” (BMC Complementary and Alternative Medicine, 2015):
One block for each compound: values may come before it.

Tests used:
UGT1A1 = target: T1, UGT1A1 (Homo sapiens, UniProt P22309); test: Luminogenic UGT1A1 inhibition assay; format: biochemical; conditions: specific inhibitor positive control, means ± S.D., read-out: IC50 Inhibitors
T1 construct: purchased Promega V2120
T1 sequence (P22309 26-533): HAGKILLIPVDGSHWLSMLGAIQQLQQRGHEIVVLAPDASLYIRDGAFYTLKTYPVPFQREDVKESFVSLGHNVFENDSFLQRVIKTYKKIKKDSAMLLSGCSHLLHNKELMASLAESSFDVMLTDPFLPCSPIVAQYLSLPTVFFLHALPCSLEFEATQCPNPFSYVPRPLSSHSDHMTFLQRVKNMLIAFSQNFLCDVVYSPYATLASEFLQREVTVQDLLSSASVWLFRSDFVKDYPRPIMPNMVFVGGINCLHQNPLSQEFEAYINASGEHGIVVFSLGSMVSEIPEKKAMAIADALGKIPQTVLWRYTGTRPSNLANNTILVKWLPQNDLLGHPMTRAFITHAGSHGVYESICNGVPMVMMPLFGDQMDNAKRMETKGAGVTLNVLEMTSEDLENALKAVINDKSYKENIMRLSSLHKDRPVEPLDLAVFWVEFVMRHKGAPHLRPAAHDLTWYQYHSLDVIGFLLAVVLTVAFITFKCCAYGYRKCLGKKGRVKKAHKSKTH
From the text: In vitro enzymatic inhibition assays of human Phase I (CYPs) and Phase II (UGTs) DME, and P-gp were done with commercially available luminogenic assay systems. The assay systems were purchased from Promega (Madison, WI, USA), and the microsomes containing the recombinant human CYPs were purchased from Life Technologies (Carlsbad, CA, USA). The microsomes containing human UGT and P-gp were supplied in the luminogenic assay systems (Promega). […]. […]. The enzyme reaction was done according to the manufacturer’s instructions. The luminescent intensity, which is correlated with the enzyme activity, was quantified with a TriStar LB 941 multimode microplate reader (Berthold Technologies, Bad Wildbad, Germany). […]

P-gp [1] = target: T2, P-gp (Homo sapiens, UniProt P08183); test: Luminogenic P-gp (ATPase) inhibition assay; format: biochemical; conditions: specific inhibitor positive control, means ± S.D., read-out: IC50 Inhibitors
T2 construct: purchased Promega V3601
T2 sequence (P08183 whole entry): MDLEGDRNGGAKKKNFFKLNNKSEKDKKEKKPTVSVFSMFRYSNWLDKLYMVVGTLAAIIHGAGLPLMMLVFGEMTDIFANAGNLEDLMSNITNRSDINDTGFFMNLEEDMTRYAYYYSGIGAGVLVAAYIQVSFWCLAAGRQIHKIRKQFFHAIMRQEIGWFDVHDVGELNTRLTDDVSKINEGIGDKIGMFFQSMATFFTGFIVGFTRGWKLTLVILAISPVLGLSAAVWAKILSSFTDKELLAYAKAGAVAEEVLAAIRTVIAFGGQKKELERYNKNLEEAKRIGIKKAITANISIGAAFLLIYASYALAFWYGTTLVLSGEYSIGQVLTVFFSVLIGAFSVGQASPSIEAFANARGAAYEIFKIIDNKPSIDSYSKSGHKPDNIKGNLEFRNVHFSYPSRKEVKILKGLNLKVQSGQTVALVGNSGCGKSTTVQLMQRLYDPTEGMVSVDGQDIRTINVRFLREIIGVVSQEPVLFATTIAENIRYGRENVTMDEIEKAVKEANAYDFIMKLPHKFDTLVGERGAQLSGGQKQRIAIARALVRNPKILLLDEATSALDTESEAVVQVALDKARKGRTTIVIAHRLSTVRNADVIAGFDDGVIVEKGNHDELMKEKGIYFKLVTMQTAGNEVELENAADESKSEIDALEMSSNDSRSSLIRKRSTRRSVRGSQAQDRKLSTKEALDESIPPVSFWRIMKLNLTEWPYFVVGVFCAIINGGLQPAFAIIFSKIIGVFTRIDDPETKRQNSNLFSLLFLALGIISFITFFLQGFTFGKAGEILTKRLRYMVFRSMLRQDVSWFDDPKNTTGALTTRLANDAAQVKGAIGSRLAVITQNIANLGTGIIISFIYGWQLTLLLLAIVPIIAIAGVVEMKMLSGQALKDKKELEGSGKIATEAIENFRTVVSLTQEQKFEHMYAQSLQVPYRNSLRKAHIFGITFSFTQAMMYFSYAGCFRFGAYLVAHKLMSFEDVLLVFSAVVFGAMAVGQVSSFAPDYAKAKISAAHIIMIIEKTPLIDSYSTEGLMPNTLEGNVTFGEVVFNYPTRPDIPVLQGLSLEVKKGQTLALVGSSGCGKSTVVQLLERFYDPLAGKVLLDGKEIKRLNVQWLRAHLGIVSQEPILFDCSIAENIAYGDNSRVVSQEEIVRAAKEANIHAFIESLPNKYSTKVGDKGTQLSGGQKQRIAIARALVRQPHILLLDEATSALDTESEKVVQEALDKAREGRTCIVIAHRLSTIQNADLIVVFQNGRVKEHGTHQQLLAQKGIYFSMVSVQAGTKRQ
From the text: In vitro enzymatic inhibition assays of human Phase I (CYPs) and Phase II (UGTs) DME, and P-gp were done with commercially available luminogenic assay systems. The assay systems were purchased from Promega (Madison, WI, USA), and the microsomes containing the recombinant human CYPs were purchased from Life Technologies (Carlsbad, CA, USA). The microsomes containing human UGT and P-gp were supplied in the luminogenic assay systems (Promega). […] The enzyme reaction was done according to the manufacturer’s instructions.

[2] = system: LPS-stimulated RAW264.7 cells; design: method as in PMID 23435946, PMID 23935669; conditions: cited from earlier work
CYP2C = conditions: competitive inhibitor; cited from earlier work
human UGT2B17 = system: human UGT2B17; design: method as in PMID 22958586; conditions: cited from earlier work
UGT1A3 = system: UGT1A3; design: method as in PMID 23339253; conditions: cited from earlier work
P-gp [3] = target: T2, P-gp; design: method as in PMID 17256728; conditions: adriamycin-resisitant human breast cancer cells, MCF-7/ADR; cited from earlier work

IC50 (UGT1A1): 180 ± 29.6 µM
Compound: O=C(O)Cc1ccccc1Nc1c(Cl)cccc1Cl [Diclofenac]

IC50 (P-gp [1]): 3.4 ± 0.32 µM
Compound: [Na+].[Na+].[Na+].[O]=[V]([O-])([O-])[O-] [Na3VO4]

Compound: O=c1c(O)c(-c2ccc(O)c(O)c2)oc2cc(O)cc(O)c12 [Quercetin]
median effective doses (ED50), inhibition of NO production [2]: 5.5 µM
Ki (CYP2C): 1.67 µM
inhibition of human UGT2B17 (human UGT2B17): inhibits

Compound: COc1cc2c(c(OC)c1OC)-c1c(cc(OC)c(OC)c1OC)C[C@H](C)[C@H](C)C2 [deoxyschizandrin]
inhibition of UGT1A3 isotype (UGT1A3): potently inhibit

Compound: COc1cc([C@H]2OC[C@H]3[C@@H]2CO[C@@H]3c2cc(OC)c(O)c(OC)c2)cc(OC)c1O [syringaresinol]
median effective doses (ED50), inhibition of NO production [2]: 10.0 µM
inhibitory effects on P-gp (P-gp [3]): exhibited inhibitory effects

Compound: schisantherin A
inhibition of UGT1A3 isotype (UGT1A3): potently inhibit
